Assay results from publication PMC8230303, “Coumarin-Based Triapine Derivatives and Their Copper(II) Complexes: Synthesis, Cytotoxicity and mR2 RNR Inhibition Activity” (Biomolecules, 2021).
Like-named read-outs stand apart in the source and are kept apart here.

Key:
MRC-5 cells = assay: Inhibition of cell viability, colorimetric MTT assay; type: cell-based; conditions: Homo sapiens, MRC5, healthy lung fibroblasts, 72 h exposure, mean ± SD
Method: (§1) Human breast adenocarcinoma cells MDA-MB-231, sensitive COLO-205 and multidrug resistant COLO-320 colorectal adenocarcinoma cells and normal human lung fibroblasts MRC-5 were obtained from ATCC. COLO-205 and COLO-320 cells were cultured in RPMI-1640 medium containing 10% foetal bovine serum, MRC-5 cells were cultured in EMEM medium containing 10% foetal bovine serum. MDA-MB-231 cells were cultured in DMEM/high glucose medium containing 10% FBS. Adherent MDA-MB-231 cells were grown in Falcon tissue culture 75 cm^2 flasks and all other cells were grown in tissue culture 25 cm^2 flasks (BD Biosciences, Singapore). All cell lines were grown at 37 °C in a humidified atmosphere of 95% air and 5% CO2. The stock solutions of copper(II) complexes were prepared in DMSO.
(§2) The cytotoxicity of the compounds was determined by colorimetric MTT assay. The cells were harvested from culture flasks by trypsinisation and seeded into Cellstar 96-well microculture plates at the seeding density of 6000 cells per well (6 × 10^4 cells/mL, MDA-MB-231) or 10,000 cells per well (1× 10^5 cells/mL cells/mL, COLO-205, COLO-320 and MRC-5). The cells were allowed to resume exponential growth for 24 h, and subsequently were exposed to drugs at different concentrations in media for 72 h. The drugs were diluted in complete medium at the desired concentration and added to each well (100 µL) and serially diluted to other wells. After exposure for 72 h, the media were replaced with MTT in media (5 mg/mL, 100 µL) and incubated for additional 50 min. Subsequently, the media were aspirated and the purple formazan crystals formed in viable cells were dissolved in DMSO (100 µL). Optical densities were measured at 570 nm using the BioTek H1 Synergy (BioTek, Singapore) microplate reader. The quantity of viable cells was expressed in terms of treated/control (T/C) values in comparison to untreated control cells, and 50% inhibitory concentrations (IC50) were calculated from concentration-effect curves by interpolation. Evaluation was based on at least three independent experiments, each comprising six replicates per concentration level.

MDA-MB-231 cells [1] = assay: as above; type: cell-based; conditions: Homo sapiens, 72 h exposure, mean ± SD
Method: as §1, §2

COLO-205 cells = assay: as above; type: cell-based; conditions: Homo sapiens, 72 h exposure, mean ± SD
Method: as §1, §2

COLO-320 cells = assay: as above; type: cell-based, human; conditions: for IC50: Homo sapiens, COLO 320, MTT assay, 72 h exposure, mean ± SD
Method: as §1, §2

MDA-MB-231 cells [2] = test system: MDA-MB-231 cells; design: method as in PMID 30384010; conditions: cited from earlier work
[3] = design: method as in doi:10.1002/ejic.200901174; conditions: copper(II) complex of the named ligand; cited from earlier work
mouse R2 RNR protein = molecular target: T1, mouse R2 RNR protein (Mus musculus, UniProt P11157); design: method as in PMID 32961653; conditions: in 3 min; cited from earlier work
T1 construct: mR2 protein was expressed, purified, and iron-reconstituted as described previously; made in house
T1 sequence (P11157 1-390): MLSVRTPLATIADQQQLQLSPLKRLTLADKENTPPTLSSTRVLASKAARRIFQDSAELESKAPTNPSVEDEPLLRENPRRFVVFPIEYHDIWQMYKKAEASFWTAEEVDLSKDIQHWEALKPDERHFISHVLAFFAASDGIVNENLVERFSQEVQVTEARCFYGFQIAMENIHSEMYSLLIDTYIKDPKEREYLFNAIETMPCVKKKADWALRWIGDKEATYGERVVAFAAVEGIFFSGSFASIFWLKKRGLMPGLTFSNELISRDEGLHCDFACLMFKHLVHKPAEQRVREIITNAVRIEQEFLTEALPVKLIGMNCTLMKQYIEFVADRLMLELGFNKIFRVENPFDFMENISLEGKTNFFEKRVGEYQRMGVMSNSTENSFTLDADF

| IC50 (MDA-MB-231 cells [1]) [µM] | IC50 (COLO-205 cells) [µM] | IC50 (COLO-320 cells) [µM] | Compound | IC50 (MRC-5 cells) [µM] | IC50 (MDA-MB-231 cells [2]) [µM] | logβ[CuL]+ [3] | tyrosyl radical reduction (mouse R2 RNR protein) [%] | SF (COLO-320 cells; IC50(MRC-5)/IC50(COLO-320)) |
| --- | --- | --- | --- | --- | --- | --- | --- | --- |
| 18 ± 4 | 89 ± 6 | 83 ± 7 | O=C(c1cc2ccc(O)cc2oc1=O)N1CCN(Cc2ccnc(C=NNC(=S)Nc3ccccc3)c2)CC1 [HL^2, 2-((4-((4-(7-Hydroxy-2-oxo-2H-chromene-3-carbonyl)piperazin-1-yl)methyl)pyridin-2-yl)methylene)-N-phenylhydrazine-1-carbothioamide] | 54 ± 5 | – | – | – | – |
| – | – | – | NC(=S)NN=Cc1ncccc1N [Triapine, 3-aminopyridine-2-carboxaldehyde thiosemicarbazone] | – | 1.5 ± 1.1 | 13.89(3) | 100 | – |
| 3 ± 0.3 | 4.4 ± 0.7 | 4.6 ± 0.3 | CN(C)C(=S)NN=Cc1cc(COc2ccc3cc(C(=O)N4CCN(Cc5ccnc(C=NNC(=S)N(C)C)c5)CC4)c(=O)oc3c2)ccn1 [H2L^4, 2-((4-((4-(7-((2-((2-(dimethylcarbamothioyl)hydrazineylidene)methyl)pyridin-4-yl)methoxy)-2-oxo-2H-chromene-3-carbonyl)piperazin-1-yl)methyl)pyridin-2-yl)methylene)-N,N-dimethylhydrazine-1-carbothioamide] | 4 ± 0.3 | – | – | – | 0.9 |
| – | 3.3 | 3.1 | COc1cccc2c1C(=O)c1c(O)c3c(c(O)c1C2=O)C[C@@](O)(C(=O)CO)C[C@@H]3O[C@H]1C[C@H](N)[C@H](O)[C@H](C)O1 [Doxorubicin, reference compound] | 5.2 | – | – | – | – |
| – | – | – | CN(C)C(=S)NN=Cc1ncccc1N [APTSC, 3-aminopyridine-2-carboxaldehyde 4N-dimethylthiosemicarbazone] | – | – | 13.95(2) | – | – |
| 4.8 ± 1.3 | 9.2 ± 0.1 | 6.7 ± 0.9 | CN(C)C(=S)NN=Cc1cc(CN2CCN(C(=O)c3cc4ccc(O)cc4oc3=O)CC2)ccn1 [HL^1, 2-((4-((4-(7-Hydroxy-2-oxo-2H-chromene-3-carbonyl)piperazin-1-yl)methyl)pyridin-2-yl)methylene)-N,N-dimethylhydrazine-1-carbothioamide] | 41 ± 1 | – | – | – | – |
| 11 ± 1 | 76 ± 8 | 90 ± 10 | Cc1cc(NCNN=Cc2cc(CN3CCN(C(=O)c4cc5ccc(O)cc5oc4=O)CC3)ccn2)cc(C)c1O [HL^3, 7-Hydroxy-3-(4-((2-((2-(((4-hydroxy-3,5-dimethylphenyl)amino)methyl)hydrazineylidene)-methyl)pyridin-4-yl)methyl)piperazine-1-carbonyl)-2H-chromen-2-one] | > 100 | – | – | – | – |
| – | – | – | CN(C)C(=S)NN=Cc1ccccn1 [PTSC, pyridine-2-carboxaldehyde 4N-dimethylthiosemicarbazone] | – | – | 13.57(2) | – | – |
